The assay has as its target T1, human PAD4 (Homo sapiens, UniProt Q9UM07).
T1 construct: human PAD4 (NM_012387), A2-P663, was PCR amplified; His-SUMO (N, cleaved yes); made in house; host or cells: E. coli BL21(DE3)
As to the kind of experiment: In vitro PAD4 BAEE biochemical assay. As to conditions: BAEE substrate 3 mM, 5 nM PAD4, 2 mM calcium chloride; geometric mean of multiple experiments. The essentials: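 Recombinant human PAD4 (5 nM final) with 2 mM CaCl2 was preincubated with compound 30 min at 25 °C in MOPS buffer pH 7.6, then reacted with 3 mM BAEE for 2 h at 25 °C. After EDTA stop, released ammonia was detected by o-phthalaldehyde/DTT fluorescence (ex 405/em 535 nm); IC50 from four-parameter fit, geometric mean.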

T1 sequence (Q9UM07 2-663): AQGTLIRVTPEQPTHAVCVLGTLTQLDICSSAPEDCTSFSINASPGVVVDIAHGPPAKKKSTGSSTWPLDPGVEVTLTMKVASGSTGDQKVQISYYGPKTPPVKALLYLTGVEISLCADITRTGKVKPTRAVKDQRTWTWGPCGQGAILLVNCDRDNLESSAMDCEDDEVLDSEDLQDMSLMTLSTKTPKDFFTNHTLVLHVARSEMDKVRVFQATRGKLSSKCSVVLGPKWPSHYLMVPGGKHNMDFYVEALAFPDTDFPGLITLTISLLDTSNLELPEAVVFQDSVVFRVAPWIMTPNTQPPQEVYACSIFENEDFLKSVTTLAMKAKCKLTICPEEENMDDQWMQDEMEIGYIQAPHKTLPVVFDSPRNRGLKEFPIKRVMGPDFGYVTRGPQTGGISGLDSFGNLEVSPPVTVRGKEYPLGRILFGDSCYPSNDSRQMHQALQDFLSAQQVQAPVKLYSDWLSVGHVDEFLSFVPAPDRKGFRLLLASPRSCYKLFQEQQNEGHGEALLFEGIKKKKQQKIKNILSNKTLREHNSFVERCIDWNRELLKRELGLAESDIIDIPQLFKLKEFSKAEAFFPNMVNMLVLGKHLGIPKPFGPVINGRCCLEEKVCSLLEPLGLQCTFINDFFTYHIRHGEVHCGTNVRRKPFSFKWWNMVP

The IC50 is the concentration needed to halve the response being measured. Take `COc1cc(C(=O)N2[C@H]3CC[C@@H]2[C@H](N)C3)cc2nc(-c3cc4ccc5nc4n3C[C@@H]3C[C@H]3COCC(=O)N[C@@H]5C)c(C)n12` [Example 326, (3~{R},5~{R},11~{R})-17-[7-[(1~{R},2~{R},4~{S})-2-amino-7-azabicyclo[2.2.1]heptane-7-carbonyl]-5-methoxy-3-methyl-imidazo[1,2-a]pyridin-2-yl]-11-methyl-7-oxa-1,10,19-triazatetracyclo[10.5.2.0^{3,5}.0^{15,18}] nonadeca-12(19),13,15(18),16-tetraen-9-one]: the IC50 was 30 nM.

For the compound `C[C@H]1NC(=O)[C@@H]2C[C@H]2CCCCCn2c(-c3nc4cc(C(=O)N[C@H]5CNCC[C@@H]5F)c(F)cc4n3CC3(C#N)CC3)cc3ccc1nc32` [Example 406, 1-[(1-cyanocyclopropyl)methyl]-6-fluoro-~{N}-[(3~{S},4~{S})-4-fluoro-3-piperidyl]-2-[(2~{R},5~{R},7~{R})-2-methyl-4-oxo-3,13,19-triazatetracyclo[11.5.2.0^{5,7}.0^{16,20}]icosa-1(19),14,16(20),17-tetraen-14-yl]benzimidazole-5-carboxamide], the IC50 came to 22 nM.

In the case of `COc1cc(C(=O)N2CCC[C@@H](N)C2)cc2nc(-c3cc4ccc5nc4n3CCCCCC(C)(C)C(=O)N[C@@H]5C)c(C)n12` [Example 106, (10~{R})-16-[7-[(3~{R})-3-aminopiperidine-1-carbonyl]-5-methoxy-3-methyl-imidazo[1,2-a]pyridin-2-yl]-7,7,10-trimethyl-1,9,18-triazatricyclo[9.5.2.0^{14,17}]octadeca-11(18),12,14(17),15-tetraen-8-one], the IC50 was determined as 201 nM.

Regarding `COc1cc(C(=O)N[C@H]2CNCC[C@@H]2F)cc2nc(-c3cc4ccc5nc4n3CCCCCCC(C)(C)C(=O)N[C@@H]5C)n(C)c12` [Example 178, ~{N}-[(3~{S},4~{S})-4-fluoro-3-piperidyl]-7-methoxy-1-methyl-2-[(11~{R})-8,8,11-trimethyl-9-oxo-1,10-diazatricyclo[10.5.2.0^{15,18}]nonadeca-12(19),13,15(18),16-tetraen-17-yl]benzimidazole-5-carboxamide], the IC50 was found to be 50 nM.

As to `C[C@H]1NC(=O)[C@H]2C[C@@H]2CCCCn2c(-c3nc4cc(C(=O)N[C@H]5CNCC[C@@H]5F)c(F)cc4n3C)cc3ccc1nc32` [Example 499, 6-fluoro-~{N}-[(3~ {S},4~{S})-4-fluoro-3-piperidyl]-1-methyl-2-[(2~{R},7~{S})-2-methyl-4-oxo-3,12,18-triazatetracyclo [10.5.2.0^{5,7}.0^{15,19}]nonadeca-1(18), 13,15(19),16-tetraen-13-yl]benzimidazole-5-carboxamide], the IC50 was determined as 163 nM.

`COc1cc(C(=O)N2CCC[C@@H](N)C2)cc2nc(-c3cc4ccc5nc4n3C[C@H]3C[C@@H]3CCCCC(=O)N[C@@H]5C)n(C)c12` [Example 163, (3~{S},5~{S},12~{R})-18-[5-[(3~{R})-3-aminopiperidine-1-carbonyl]-7-methoxy-1-methyl-benzimidazol-2-yl]-12-methyl-1,11,20-triazatetracyclo[11.5.2.0^{3,5}.0^{16,19}] icosa-13(20),14,16(19),17-tetraen-10-one]: the IC50 was found to be 51 nM.

Regarding `COc1cc(C(=O)N2[C@H]3CC[C@@H]2[C@H](N)C3)cc2nc(-c3cc4ccc5nc4n3CCCCOCC(=O)N3CCC[C@H]53)n(C)c12` [Example 133, (2~{R})-15-[5-[(1~{R},2~{R},4~{S})-2-amino-7-azabicyclo[2.2.1]heptane-7-carbonyl]-7-methoxy-1-methyl-benzimidazol-2-yl]-9-oxa-6,14,20-triazatetracyclo[12.5.2.0^{2,6}.0^{17,21}] henicosa-1(20),15,17(21),18-tetraen-7-one], the IC50 worked out at 47 nM.

For `COc1cc(C(=O)N2[C@H]3CC[C@@H]2[C@H](N)C3)cc2nc(-c3cc4ccc5nc4n3CCCCCCc3ccccc3C(=O)N[C@@H]5C)n(C)c12` [Example 40, (2~{R})-18-[5-[(1~{R},2~{R},4~{S})-2-amino-7-azabicyclo[2.2.1]heptane-7-carbonyl]-7-methoxy-1-methyl-benzimidazol-2-yl]-2-methyl-3,17,23-triazatetracyclo[15.5.2.0^{5,10).0^{20,24}] tetracosa-1(23),5,7,9,18,20(24),21-heptaen-4-one], the IC50 turned out to be 24 nM.

As to `C[C@H]1NC(=O)[C@@H]2[C@@H](CCCCCn3c(-c4nc5cc(C(=O)N[C@H]6CNCC[C@@H]6F)c(F)cc5n4C4CC4)cc4ccc1nc43)C2(F)F` [Example 393, 1-cyclopropyl-2-[(2~{R},5~{S},7~{R})-6,6-difluoro-2-methyl-4-oxo-3,13,19-triazatetracyclo[11.5.2.0^{5,7}.0^{16,20}]icosa-1(19),14,16(20),17-tetraen-14-yl]-6-fluoro-~{N}-[(3~{S},4~{S})-4-fluoro-3-piperidyl]benzimidazole-5-carboxamide], the IC50 was determined as 63 nM.

Consider `COc1cc(C(=O)N2[C@H]3CC[C@@H]2[C@H](N)C3)cc2nc(-c3cc4ccc5nc4n3CC(F)(F)CCCCCC(=O)N[C@@H]5C)n(C)c12` [Example 534, (11~{R})-17-[5-[(1~ {R},2~{R},4~{S})-2-amino-7-azabicyclo[2.2.1]heptane-7-carbonyl]-7-methoxy-1-methyl-benzimidazol-2-yl]-3,3-difluoro-11-methyl-1,10,19-triazatricyclo[10.5.2.0^ {15,18}]nonadeca-12(19),13,15(18),16-tetraen-9-one], for which the IC50 worked out at 56 nM.

Turning to `COc1cc(C(=O)N2CC[C@@H](OC)[C@@H](N)C2)cc2nc(-c3cc4ccc5nc4n3CCCCC[C@H]3C[C@]3(C)C(=O)N[C@@H]5C)n(C)c12` [Example 175], the IC50 is 231 nM.

For the compound `C[C@H]1NC(=O)c2ccc(Cl)nc2CCCCCn2c(-c3nc4cc(C(=O)N5C[C@H]6CC[C@@H]5[C@@H]6N)cc(F)c4n3C3CC3)cc3ccc1nc32` [Example 798, (2~{R})-17-[5-[(1~{R},4~{R}, 7~{R})-7-amino-2-azabicyclo [2.2.1]heptane-2-carbonyl]-1-cyclopropyl-7-fluoro-benzimidazol-2-yl]-8-chloro-2-methyl-3,9,16,22-tetrazatetracyclo[14.5.2.0^ {5,10}.0^{19,23}]tricosa-1(21),5(10),6,8,17,19,22-heptaen-4-one], the IC50 turned out to be 17 nM.

`C[C@H]1NC(=O)[C@@H]2C[C@H]2CCCCCn2c(-c3nc4cc(C(=O)N[C@H]5CNCC[C@@H]5F)c(F)cc4n3[C@@H]3C[C@H]3C(F)F)cc3ccc1nc32` [Example 415, 1-[(1~{R},2~{R})-2-(difluoromethyl)cyclopropyl]-6-fluoro-~ {N}-[(3~{S},4~{S})-4-fluoro-3-piperidyl]-2-[(2~{R},5~{R},7~{R})-2-methyl-4-oxo-3,13,19-triazatetracyclo[11.5.2.0^{5,7}.0^{16,20}]icosa-1(19),14,16(20),17-tetraen-14-yl]benzimidazole-5-carboxamide]: the concentration for half-maximal inhibition (IC50) came out at 52 nM.

Turning to `COc1cc(C(=O)N[C@H]2CNCC[C@@H]2F)cc2nc(-c3cc4ccc5nc4n3CCCCCc3cnn(C)c3C(=O)N[C@@H]5C)n(C)c12` [Example 181, 2-[(2~{R})-2,6-dimethyl-4-oxo-3,6,7,15,21-pentazatetracyclo[13.5.2.0^{5,9}.0^{18,22}]docosa-1(21),5(9),7,16,18(22),19-hexaen-16-yl]-~{N}-[(3~{S},4~{S})-4-fluoro-3-piperidyl]-7-methoxy-1-methyl-benzimidazole-5-carboxamide], the IC50 came to 171 nM.

On to `CO[C@H]1C[C@@H]1n1c(-c2cc3ccc4nc3n2CC(F)(F)CCC[C@@H]2C[C@H]2C(=O)N[C@@H]4C)nc2cc(C(=O)N3C[C@H](N)[C@@H]4CC[C@H]3C4)cc(F)c21` [Example 470, (2~{R},5~{R},7~{R})-14-[5-[(1~{S},4~{R},5~{R})-4-amino-2-azabicyclo[3.2.1]octane-2-carbonyl]-7-fluoro-1-[(1~{S},2~{S})-2-methoxycyclopropyl]benzimidazol-2-yl]-11,11-difluoro-2-methyl-3,13,19-triazatetracyclo[11.5.2.0^{5,7}.0^{16,20}] icosa-1(18),14,16,19-tetraen-4-one], for which the IC50 is 43 nM.

Turning to `C[C@H]1NC(=O)[C@@H]2C[C@H]2CCCC(F)(F)Cn2c(-c3nc4cc(C(=O)N5C[C@H](N)[C@@H]6CC[C@H]5C6)c(F)cc4n3C3CC3)cc3ccc1nc32` [Example 455, (2~{R},5~{R},7~{R})-14-[5-[(1~{S},4~{R},5~{R})-4-amino-2-azabicyclo[3.2.1]octane-2-carbonyl]-1-cyclopropyl-6-fluoro-benzimidazol-2-yl]-11,11-difluoro-2-methyl-3,13,19-triazatetracyclo[11.5.2.0^{5,7}.0^{16,20}] icosa-1(19),14,16(20),17-tetraen-4-one], the IC50 was 36 nM.

In the case of `CCn1c(-c2cc3ccc4nc3n2CCCCCc2nc(Cl)ccc2C(=O)N[C@@H]4C)nc2cc(C(=O)N3C[C@H](N)[C@@H]4CC[C@H]3C4)cc(F)c21` [Example 939, (2~{R})-17-[5-[(1~{S),4~{R}, 5~{R})-4-amino-2-azabicyclo [3.2.1]octane-2-carbonyl]-1-ethyl-7-fluoro-benzimidazol-2-yl]-8-chloro-2-methyl-3,9,16,22-tetrazatetracyclo[14.5.2.0^ {5,10}.0^{19,23}]tricosa-1(22),5(10),6,8,17,19(23),20-heptaen-4-one], the IC50 turned out to be 44 nM.

With `COc1cc(C(=O)N2CC[C@@H](OC)[C@@H](N)C2)cc2nc(-c3cc4ccc5nc4n3CCCCCC[C@@H](OC)C(=O)N[C@@H]5C)n(C)c12` [Example 628, (8~{R},11~{R})-17-[5-[(3~ {S},4~{R})-3-amino-4-methoxy-piperidine-1-carbonyl]-7-methoxy-1-methyl-benzimidazol-2-yl]-8-methoxy-11-methyl-1,10,19-triazatricyclo [10.5.2.0^{15,18}] nonadeca-12(19),13,15(18),16-tetraen-9-one], the half-inhibitory concentration (IC50) was 83 nM.

The record behind these values is patent publication US11976083B2, “Inhibitors of peptidylarginine deiminases” (Gilead Sciences, Inc., priority 2020, dated 2024).
